Here are results for six molecules from DBAASP.

≈ marks a conversion by molar mass, not a printed value. Where “and” joins values, the source holds several entries; their conditions need not be identical. Equal entries are not always repeated.

What all share (test): ≥ marks a high value that may be exact or a test limit, other limits are often not marked, values filed in µg/mL are converted to µM
Experiment [1] has as its system Pseudomonas aeruginosa NCTC 13437.
Experiment [2] deals with Staphylococcus aureus NCTC 6571.
Experiment [3] deals with Klebsiella pneumoniae M6.
For experiment [4], the system named is Acinetobacter baumannii ATCC 17978.
Experiment [5] concerns Staphylococcus aureus NCTC 13277.
Experiment [6] concerns Acinetobacter baumannii AYE.
Experiment [7] relates to Pseudomonas aeruginosa PAO1.
The subject of experiment [8] is Enterococcus faecalis NCTC 12201.
For experiment [9], the system named is Staphylococcus aureus NCTC 13616.
The test system of experiment [10] is Enterococcus faecalis NCTC 775.
Experiment [11] has as its system Escherichia coli CGMCC 1.8732.
For experiment [12], the system named is Klebsiella pneumoniae CGMCC 1.1736.
Experiment [13] deals with Staphylococcus aureus CGMCC 1.8721.
In experiment [14] the test system is Pseudomonas aeruginosa CGMCC 1.2421.
In experiment [15] the test system is Bacillus subtilis CGMCC 1.3376.
Experiment [16] relates to Staphylococcus epidermidis CGMCC 1.4260.
For experiment [17], the system named is Staphylococcus aureus ATCC 43300.
Experiment [18] relates to Bacillus subtilis DSM 402.
Experiment [19] has as its system Escherichia coli DSM 30083.
The test system of experiment [20] is Staphylococcus aureus DSM 20231.
Experiment [21] relates to Staphylococcus aureus ATCC 25923.
The test system of experiment [22] is Salmonella typhimurium CCARM 8009.
For experiment [23], the system named is Salmonella typhimurium CCARM 8013.
Experiment [24] deals with Pseudomonas aeruginosa ATCC 27853.
In experiment [25] the test system is Staphylococcus aureus CCARM 3114.
The test system of experiment [26] is Salmonella typhimurium KCTC 1926.
Experiment [27] concerns Staphylococcus aureus CCARM 3709.
Experiment [28] has as its system Listeria monocytogenes KCTC 3710.
Experiment [29] concerns Escherichia coli ATCC 25922.
The subject of experiment [30] is Pseudomonas aeruginosa 3592.
Experiment [31] deals with Pseudomonas aeruginosa 5018.
Experiment [32] concerns Escherichia coli CCARM 1229.
In experiment [33] the test system is Bacillus subtilis ATCC 6633.
In experiment [34] the test system is Staphylococcus aureus ATCC 6538.
Experiment [35] has as its system Escherichia coli K-12.
Experiment [36] concerns Micrococcus luteus NCIMB 13267.
Experiment [37] deals with Streptococcus mutans UA159.
The test system of experiment [38] is Streptococcus sanguinis ATCC 49295.
Experiment [39] has as its system Streptococcus mutans GS-5.
The test system of experiment [40] is Streptococcus gordonii ATCC 10558.

Regarding `CC[C@H](C)[C@H](NC(=O)[C@@H]1CCCN1C(=O)[C@H](CC(C)C)NC(=O)[C@@H](N)Cc1ccccc1)C(=O)N[C@H](C(=O)NCC(=O)N[C@@H](CC(C)C)C(=O)N[C@@H](CC(C)C)C(=O)N[C@@H](CCCCN)C(=O)N[C@@H](CO)C(=O)N[C@@H](CC(C)C)C(=O)N[C@@H](CC(C)C)C(=O)N[C@@H](CCCCN)C(N)=O)C(C)C` [FLPIVGLLKSLLK], the MIC (as a rule, the lowest concentration that inhibits growth of the organism) is ≥ 88.8 µM in [1]; 2.78 µM and 5.55 µM in experiment [2]; 22.2 µM and ≥ 44.4 µM in [3]; 5.55 µM and 11.1 µM in experiment [4]; 11.1 µM (≈ 16 µg/mL) in experiment [5]; 5.55 µM (≈ 7.99 µg/mL) in experiment [6]. The MIC in [7] is 88.8 µM (≈ 128 µg/mL); in experiment [8], ≥ 88.8 µM; in [9], 11.1 µM (≈ 16 µg/mL); in experiment [10], 22.2 µM and ≥ 44.4 µM.

Turning to `CC[C@H](C)[C@H](NC(=O)[C@H](CO)NC(=O)CNC(=O)[C@@H](NC(=O)[C@@H](N)CCCN=C(N)N)[C@@H](C)CC)C(=O)N[C@@H](CC(C)C)C(=O)NCC(=O)N[C@@H](CCCN=C(N)N)C(=O)N[C@@H](CC(C)C)C(=O)N[C@@H](C)C(=O)N[C@@H](CCCCN)C(=O)NCC(=O)N[C@@H](CC(C)C)C(=O)N1CCC[C@H]1C(=O)N[C@H](C(=O)N[C@@H](CC(C)C)C(=O)N[C@H](C(=O)N[C@@H](CO)C(=O)N[C@@H](Cc1c[nH]c2ccccc12)C(=O)N[C@H](C(=O)N[C@@H](CCCCN)C(=O)N[C@@H](CC(N)=O)C(=O)N[C@@H](CCCN=C(N)N)C(N)=O)[C@@H](C)CC)[C@@H](C)CC)[C@@H](C)O` [RIGSILGRLAKGLPTLISWIKNR], the MIC came out at 6.25 µM (≈ 16 µg/mL) in [11]; 6.25 µM (≈ 16 µg/mL) in [12]; 12.5 µM (≈ 32 µg/mL) in experiment [13]; 6.25 µM (≈ 16 µg/mL) in experiment [14]; 6.25 µM (≈ 16 µg/mL) in [15]; 3.13 µM (≈ 8.02 µg/mL) in experiment [16].

Regarding `NCCCC[C@H](N)C(=O)N[C@@H](CCCN=C(N)N)C(=O)N[C@@H](Cc1c[nH]c2ccccc12)C(=O)N[C@@H](CCCN=C(N)N)C(=O)N[C@@H](Cc1c[nH]c2ccccc12)C(=O)N[C@@H](CCCN=C(N)N)C(=O)N[C@@H](Cc1c[nH]c2ccccc12)C(=O)O` [KRWRWRW], the MIC is 12.7 µM (≈ 14.9 µg/mL) in experiment [17], 2 µM (≈ 2.35 µg/mL) in [18], 18 µM (≈ 21.1 µg/mL) in [19] and ≥ 37 µM in experiment [20].

For the molecule `CC[C@H](C)[C@H](NC(=O)[C@H](Cc1c[nH]c2ccccc12)NC(=O)[C@H](CCCN=C(N)N)NC(=O)[C@@H](NC(=O)[C@@H](N)CCCN=C(N)N)[C@@H](C)CC)C(=O)N[C@@H](CC(C)C)C(=O)N[C@@H](CCCN=C(N)N)C(=O)N[C@@H](Cc1ccc(O)cc1)C(=O)N[C@@H](Cc1c[nH]c2ccccc12)C(=O)N[C@@H](CCCN=C(N)N)C(=O)N[C@@H](Cc1c[nH]c2ccccc12)C(=O)N[C@@H](CO)C(=O)O` [RIRWILRYWRWS], the MIC in experiment [21] was 1 µM (≈ 1.79 µg/mL); in experiment [22], 4 µM (≈ 7.16 µg/mL); in experiment [23], 4 µM and 8 µM; in experiment [24] it was 4 µM (≈ 7.16 µg/mL); in experiment [25], 8 µM and 16 µM; in [26], 2 µM (≈ 3.58 µg/mL). The MIC is 2 µM and 4 µM in experiment [27]; 4 µM (≈ 7.16 µg/mL) in experiment [28]; 2 µM (≈ 3.58 µg/mL) in [29]; 8 µM (≈ 14.3 µg/mL) in experiment [30]; 8 µM (≈ 14.3 µg/mL) in experiment [31]; 1 µM and 2 µM in experiment [32].

In the case of `CC[C@H](C)[C@H](NC(=O)[C@H](CCC(=O)O)NC(=O)[C@H](CCC(N)=O)NC(=O)[C@H](CCC(=O)O)NC(=O)[C@H](CC(C)C)NC(=O)[C@H](C)NC(=O)[C@H](C)NC(=O)[C@@H](NC(=O)[C@H](CCC(=O)O)NC(=O)[C@H](CCC(N)=O)NC(=O)[C@H](CCC(=O)O)NC(=O)[C@H](CC(C)C)NC(=O)[C@H](C)NC(=O)[C@H](C)NC(=O)[C@@H](NC(=O)[C@@H](N)CCC(N)=O)[C@@H](C)CC)[C@@H](C)CC)C(=O)N[C@@H](C)C(=O)N[C@@H](C)C(=O)N[C@@H](CC(C)C)C(=O)N[C@@H](CCC(N)=O)C(=O)O` [QIAALEQEIAALEQEIAALQ], the MIC is ≥ 250 µM in [33]; 250 µM (≈ 538 µg/mL) in [34]; 250 µM (≈ 538 µg/mL) in experiment [24]; ≥ 250 µM in [35]; ≥ 250 µM in experiment [36].

For `CC(C)C[C@H](NC(=O)[C@H](CCCN=C(N)N)NC(=O)[C@H](Cc1ccccc1)NC(=O)[C@H](Cc1ccccc1)NC(=O)[C@@H](NC(=O)[C@H](CO)NC(=O)[C@@H](N)CC(C)C)[C@@H](C)O)C(=O)N[C@@H](Cc1ccccc1)C(=O)N[C@@H](CC(N)=O)C(=O)NCC(=O)N[C@@H](CCCN=C(N)N)C(=O)N[C@@H](CCCN=C(N)N)C(=O)N[C@@H](CCCN=C(N)N)C(=O)N[C@@H](CCCN=C(N)N)C(=O)N[C@@H](CO)C(=O)N[C@H](C(=O)N[C@@H](CCC(N)=O)C(=O)N[C@@H](Cc1c[nH]c2ccccc12)C(=O)N[C@@H](CS)C(=O)N[C@@H](C)C(=O)O)C(C)C` [LSTFFRLFNGRRRRSVQWCA], the MIC in experiment [37] was 4.27 µM (≈ 10.7 µg/mL); in [38], ≥ 39.8 µM; in experiment [39], 5.33 µM (≈ 13.3 µg/mL); in experiment [40] it was 19.9 µM (≈ 49.8 µg/mL).
